The record followed here is ChEMBL document CHEMBL1212709, “Design of isoform-selective phospholipase D inhibitors that modulate cancer cell invasiveness” (Nat Chem Biol, 2009).

Structures are written as SMILES. Where only a bound is given, the exact number is not on record here.

The target in assay [1] is T1, Phospholipase D2 (Homo sapiens, UniProt O14939). In words: Inhibition of human PLD2 assessed as release of methyl-[3H]choline from choline-methyl-[3H]dipalmitoylphosphatidylcholine after 30 mins by exogenous substrate assay.
Assay [2] addresses T2, Phospholipase D1 (Homo sapiens, UniProt Q13393).
T2 sequence (Q13393 whole entry): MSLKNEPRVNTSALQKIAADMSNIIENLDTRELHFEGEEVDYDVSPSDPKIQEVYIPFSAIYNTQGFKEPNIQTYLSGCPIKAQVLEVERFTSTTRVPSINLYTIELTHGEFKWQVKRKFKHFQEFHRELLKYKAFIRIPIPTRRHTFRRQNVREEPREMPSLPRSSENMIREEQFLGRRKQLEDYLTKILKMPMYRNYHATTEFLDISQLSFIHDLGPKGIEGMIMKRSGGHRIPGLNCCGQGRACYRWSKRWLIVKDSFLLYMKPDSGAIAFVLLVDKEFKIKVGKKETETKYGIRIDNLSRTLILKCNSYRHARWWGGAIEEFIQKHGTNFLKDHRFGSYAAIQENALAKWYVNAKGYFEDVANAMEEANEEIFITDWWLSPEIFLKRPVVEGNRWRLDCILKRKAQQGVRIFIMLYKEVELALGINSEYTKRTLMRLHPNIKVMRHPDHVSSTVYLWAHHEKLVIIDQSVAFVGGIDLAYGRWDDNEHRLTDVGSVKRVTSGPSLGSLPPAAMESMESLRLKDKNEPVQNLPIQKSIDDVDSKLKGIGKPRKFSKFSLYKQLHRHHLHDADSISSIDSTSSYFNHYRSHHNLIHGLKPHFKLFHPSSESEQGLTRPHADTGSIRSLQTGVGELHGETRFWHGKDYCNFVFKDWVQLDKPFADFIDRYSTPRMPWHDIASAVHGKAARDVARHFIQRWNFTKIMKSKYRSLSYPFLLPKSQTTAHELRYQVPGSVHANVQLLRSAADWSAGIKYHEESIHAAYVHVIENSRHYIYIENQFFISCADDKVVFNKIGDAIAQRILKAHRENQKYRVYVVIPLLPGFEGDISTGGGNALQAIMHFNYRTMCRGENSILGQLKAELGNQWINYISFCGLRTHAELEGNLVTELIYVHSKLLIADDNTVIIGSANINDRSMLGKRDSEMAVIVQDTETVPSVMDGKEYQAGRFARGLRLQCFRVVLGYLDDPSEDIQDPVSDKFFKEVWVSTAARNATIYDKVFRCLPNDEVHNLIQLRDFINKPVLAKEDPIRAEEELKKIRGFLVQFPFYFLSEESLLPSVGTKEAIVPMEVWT
Briefly: Inhibition of human PLD1 assessed as release of methyl-[3H]choline from choline-methyl-[3H]dipalmitoylphosphatidylcholine after 30 mins by exogenous substrate assay.

Assay [3] has as its target T3, Phospholipase D1 (Rattus norvegicus, UniProt P70496).
T3 sequence (P70496 whole entry): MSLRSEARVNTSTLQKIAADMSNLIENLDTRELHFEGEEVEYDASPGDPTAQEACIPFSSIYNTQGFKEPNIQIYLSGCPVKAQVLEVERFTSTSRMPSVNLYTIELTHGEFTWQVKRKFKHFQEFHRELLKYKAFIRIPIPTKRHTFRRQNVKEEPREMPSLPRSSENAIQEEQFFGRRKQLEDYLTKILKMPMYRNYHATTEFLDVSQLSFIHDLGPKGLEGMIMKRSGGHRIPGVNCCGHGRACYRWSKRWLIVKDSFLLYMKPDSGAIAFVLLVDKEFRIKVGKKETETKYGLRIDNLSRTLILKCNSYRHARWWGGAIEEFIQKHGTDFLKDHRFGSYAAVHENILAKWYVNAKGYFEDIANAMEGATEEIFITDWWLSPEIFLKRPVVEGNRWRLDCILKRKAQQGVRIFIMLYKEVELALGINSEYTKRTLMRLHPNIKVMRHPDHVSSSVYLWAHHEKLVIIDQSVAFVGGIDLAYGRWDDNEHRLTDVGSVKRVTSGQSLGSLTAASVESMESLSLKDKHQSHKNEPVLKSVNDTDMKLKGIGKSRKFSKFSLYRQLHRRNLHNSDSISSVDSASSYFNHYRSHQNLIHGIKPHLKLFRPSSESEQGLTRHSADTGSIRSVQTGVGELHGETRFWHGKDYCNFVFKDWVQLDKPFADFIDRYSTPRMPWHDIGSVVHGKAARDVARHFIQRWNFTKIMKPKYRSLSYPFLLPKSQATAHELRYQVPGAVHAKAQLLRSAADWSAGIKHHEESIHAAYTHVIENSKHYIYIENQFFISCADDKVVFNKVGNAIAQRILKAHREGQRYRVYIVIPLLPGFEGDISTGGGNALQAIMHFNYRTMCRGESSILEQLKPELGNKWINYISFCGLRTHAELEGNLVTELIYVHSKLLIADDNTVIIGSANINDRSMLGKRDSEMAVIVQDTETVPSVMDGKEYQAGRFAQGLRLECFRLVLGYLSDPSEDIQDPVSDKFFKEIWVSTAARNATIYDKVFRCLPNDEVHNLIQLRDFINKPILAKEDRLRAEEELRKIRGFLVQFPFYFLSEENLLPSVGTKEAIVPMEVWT
Briefly: Inhibition of N-terminally truncated rat PLD1 assessed as release of methyl-[3H]choline from choline-methyl-[3H]dipalmitoylphosphatidylcholine after 30 mins by exogenous substrate assay.

Assay [4] addresses T1, Phospholipase D2. In words: Inhibition of GFP-tagged human PLD2 expressed in human HEK293 cells assessed as decrease in phosphatidylbutanol-[d9] production after 30 mins by mass spectrometric analysis. It is filed as cell-based.
In assay [5] the target is T2, Phospholipase D1.
Assay [6] is described as follows: Inhibition of PLD.
Assay [7] in a line: Inhibition of in Streptomyces chromofuscus PLD.
Assay [8] deals with T2, Phospholipase D1. Briefly: Inhibition of human PLD1b.

T1 sequence (O14939 whole entry): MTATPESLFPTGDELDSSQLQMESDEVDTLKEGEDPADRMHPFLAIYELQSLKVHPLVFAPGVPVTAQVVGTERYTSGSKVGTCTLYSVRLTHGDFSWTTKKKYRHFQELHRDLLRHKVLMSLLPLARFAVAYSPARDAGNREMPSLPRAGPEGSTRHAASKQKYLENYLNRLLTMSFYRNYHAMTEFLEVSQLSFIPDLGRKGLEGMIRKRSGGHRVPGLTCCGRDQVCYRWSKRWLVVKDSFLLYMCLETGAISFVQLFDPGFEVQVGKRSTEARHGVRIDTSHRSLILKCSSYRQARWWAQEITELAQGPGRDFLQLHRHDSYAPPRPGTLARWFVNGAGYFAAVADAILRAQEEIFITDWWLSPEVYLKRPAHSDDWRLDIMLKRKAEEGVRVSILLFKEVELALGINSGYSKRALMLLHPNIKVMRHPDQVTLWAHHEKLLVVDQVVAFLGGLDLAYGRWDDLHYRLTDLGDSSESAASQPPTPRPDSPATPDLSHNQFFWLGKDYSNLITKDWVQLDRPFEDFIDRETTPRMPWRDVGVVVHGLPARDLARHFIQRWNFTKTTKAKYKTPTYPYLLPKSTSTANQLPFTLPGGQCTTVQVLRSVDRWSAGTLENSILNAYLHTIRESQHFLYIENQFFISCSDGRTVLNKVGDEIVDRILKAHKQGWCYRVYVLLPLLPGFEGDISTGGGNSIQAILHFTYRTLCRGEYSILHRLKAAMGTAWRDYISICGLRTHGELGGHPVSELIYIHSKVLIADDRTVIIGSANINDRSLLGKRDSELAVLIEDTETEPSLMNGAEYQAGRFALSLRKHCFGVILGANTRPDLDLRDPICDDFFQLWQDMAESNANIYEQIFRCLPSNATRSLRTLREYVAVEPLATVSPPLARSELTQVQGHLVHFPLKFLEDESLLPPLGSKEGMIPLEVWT

`O=C(NCCN1CCC(n2c(=O)[nH]c3ccccc32)CC1)c1cc(Br)c(Br)o1`: the IC50 in assay [1] stood at 0.17 µM; in assay [2], 0.079 µM; in assay [3], 2.9 µM; in assay [4] it was 0.22 µM; in assay [5] it was 0.0089 µM.
As for `O=C(NCCN1CCC(n2c(O)nc3ccccc32)CC1)c1cccc2c1-c1ccccc1C2=O`, the 50% inhibitory concentration (IC50) worked out at 0.6 µM in assay [1]; 0.26 µM in assay [2]; 1.1 µM in assay [3]; 1 µM in assay [4]; 0.02 µM in assay [5].
The matching figures for `O=C(NCCN1CCC(n2c(O)nc3ccccc32)CC1)c1ccc(Cl)c(Cl)c1`: 0.25 µM, 0.046 µM, 0.91 µM, 0.22 µM and 0.019 µM.
For `O=C(NCCN1CCC(n2c(O)nc3ccccc32)CC1)c1ccc(Cl)cc1` the same measures were 0.13 µM, 0.055 µM, 0.91 µM, 0.14 µM and 0.0063 µM.
As for `COc1ccc(C(=O)NCCN2CCC(n3c(=O)[nH]c4ccccc43)CC2)cc1`, the IC50 is > 20 µM in assay [1]; 15 µM in assay [2]; > 20 µM in assay [3]; 1.1 µM in assay [4]; 1 µM in assay [5].
Take `O=C(NCCN1CCC(n2c(=O)[nH]c3ccccc32)CC1)n1c2ccccc2c2ccccc21`: the IC50 worked out at 1 µM in assay [1]; 0.3 µM in assay [2]; 7.2 µM in assay [3]; 0.26 µM in assay [4]; 0.33 µM in assay [5].
The matching figures for `O=C(c1ccc(F)cc1)N(CCN1CCC(n2c(=O)[nH]c3ccccc32)CC1)C(=O)c1ccc(F)cc1`: 2.2 µM, 1.4 µM, 0.87 µM, 0.47 µM and 0.048 µM.
Take `Cc1ccc(C(=O)NCCN2CCC(n3c(O)nc4ccccc43)CC2)cc1`: the IC50 in assay [1] worked out at 1.1 µM; in assay [2], 0.78 µM; in assay [3], 1.7 µM; in assay [4], 0.21 µM; in assay [5], 0.032 µM.
For `C=Cc1ccc(C(=O)NCCN2CCC(n3c(=O)[nH]c4ccccc43)CC2)cc1`, the IC50 in assay [2] worked out at 0.54 µM; in assay [5] it was 0.079 µM.
In the case of `O=C(NCCN1CCC(n2c(=O)[nH]c3ccccc32)CC1)c1ccc[nH]1`, the 50% inhibitory concentration (IC50) in assay [1] is 1.2 µM; in assay [2], 0.316 µM; in assay [3], 1.5 µM; in assay [4], 0.34 µM; in assay [5] it was 0.037 µM.
In the case of `O=C(NCCN1CCC(n2c(=O)[nH]c3ccccc32)CC1)c1cc(Cl)cc(Cl)c1`, the half-inhibitory concentration (IC50) in assay [1] is 1.9 µM; in assay [2], 0.4 µM; in assay [3] it was 3.5 µM; in assay [4], 1.1 µM; in assay [5] it was 0.085 µM.
In the case of `O=C(NCCN1CCC2(CC1)C(=O)NCN2c1ccccc1)c1ccc(C(F)(F)F)cc1`, the IC50 in assay [1] was 4.3 µM; in assay [3] it was > 20 µM.
Regarding `CCC(=C(c1ccc(O)cc1)c1ccc(OCCN(C)C)cc1)c1ccccc1`, the half-maximal inhibitory concentration (IC50) turned out to be 28 µM in assay [3] and 4.8 µM in assay [5].
On to `O=C(NCCN1CCC(n2c(=O)[nH]c3ccccc32)CC1)c1cc2cc(F)ccc2[nH]1`, for which the 50% inhibitory concentration (IC50) is 0.017 µM in assay [1], 0.0095 µM in assay [2], 0.033 µM in assay [3] and 0.001 µM in assay [5].
For the compound `O=C(NCCN1CCC(n2c(=O)[nH]c3ccccc32)CC1)c1cc2ccccc2s1`, the IC50 amounted to 0.34 µM in assay [1]; 0.1 µM in assay [2]; 1 µM in assay [3]; 0.21 µM in assay [4]; 0.014 µM in assay [5].
Turning to `O=C(NCCN1CCC2(CC1)C(=O)NCN2c1ccccc1)c1ccc2ccccc2c1`, in assay [3], the concentration for half-maximal inhibition (IC50) was > 20 µM.
For `O=C(c1ccc(OCCN2CCCCC2)cc1)c1c(-c2ccc(O)cc2)sc2cc(O)ccc12` [RALOXIFENE], the IC50 was 3.4 µM in assay [1]; 4.3 µM in assay [2]; > 20 µM in assay [3]; 10 µM in assay [4]; 8.5 µM in assay [5].
On to `Oc1ccc(/C=C/c2cc(O)cc(O)c2)cc1` [RESVERATROL], for which, in assay [6], the 50% inhibitory concentration (IC50) is > 60 µM.
In the case of `CC(C)=CCC/C(C)=C/CC/C(C)=C/[C@H]1[C@H](COP(=O)(O)OP(=O)(O)O)[C@@]1(C)CC/C=C(\C)CCC=C(C)C` [Z-PSDP], the half-inhibitory concentration (IC50) was 0.1 µM in assay [7] and > 1 µM in assay [8].
